Columns and labels:
Bile acid receptor = biological target: T1, Bile acid receptor (Homo sapiens, UniProt Q96RI1); experiment: Agonist activity at FXR in human HeLa cells incubated for 24 hrs by Dual-Glo luciferase assay; type: cell-based
T1 sequence (Q96RI1 whole entry): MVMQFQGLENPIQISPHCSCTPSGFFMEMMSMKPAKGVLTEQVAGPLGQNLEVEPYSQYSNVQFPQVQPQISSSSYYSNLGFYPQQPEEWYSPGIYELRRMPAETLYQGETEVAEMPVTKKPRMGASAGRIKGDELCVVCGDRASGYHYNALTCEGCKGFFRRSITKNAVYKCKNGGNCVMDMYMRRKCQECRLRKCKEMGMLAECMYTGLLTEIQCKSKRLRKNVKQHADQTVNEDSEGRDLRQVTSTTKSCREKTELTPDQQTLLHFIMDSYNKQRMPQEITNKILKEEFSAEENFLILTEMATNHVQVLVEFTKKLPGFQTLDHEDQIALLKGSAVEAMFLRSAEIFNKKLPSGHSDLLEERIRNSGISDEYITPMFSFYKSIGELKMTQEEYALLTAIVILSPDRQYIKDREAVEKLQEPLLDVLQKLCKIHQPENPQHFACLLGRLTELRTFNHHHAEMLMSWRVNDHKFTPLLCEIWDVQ

[1] = biological target: T2, Peroxisome proliferator-activated receptor delta (Homo sapiens, UniProt Q03181); experiment: Agonist activity at human PPARdelta expressed in HEK293T cells incubated for 12 to 14 hrs by Dual-Glo luciferase assay; type: cell-based
T2 sequence (Q03181 whole entry): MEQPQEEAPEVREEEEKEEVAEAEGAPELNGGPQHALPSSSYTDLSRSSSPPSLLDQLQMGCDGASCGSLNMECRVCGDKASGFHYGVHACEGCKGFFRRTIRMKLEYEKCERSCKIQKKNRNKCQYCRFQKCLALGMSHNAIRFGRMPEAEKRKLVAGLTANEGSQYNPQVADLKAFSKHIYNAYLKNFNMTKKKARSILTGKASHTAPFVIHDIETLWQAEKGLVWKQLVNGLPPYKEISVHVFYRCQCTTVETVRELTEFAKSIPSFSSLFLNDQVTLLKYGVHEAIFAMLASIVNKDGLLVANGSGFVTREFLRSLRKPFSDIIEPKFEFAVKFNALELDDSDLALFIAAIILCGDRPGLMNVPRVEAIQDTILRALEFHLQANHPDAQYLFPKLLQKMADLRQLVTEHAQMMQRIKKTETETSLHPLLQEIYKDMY

EC50 (Bile acid receptor): 940 nM | EC50 [1]: 1500 nM
SMILES: CC(C)c1onc(-c2c(Cl)cccc2Cl)c1COc1ccc(CNc2ccc(CC(=O)O)cc2)c(Cl)c1

Source: ChEMBL document CHEMBL5233278, “Recent Advances in the Medicinal Chemistry of Farnesoid X Receptor” (J Med Chem, 2021)
